Tested on: Hepatocyte spheroids
Experiment: This assay model using primary human hepatocyte (PHH) spheroids, which are cultured in Williams E medium. After spheroid formation, cells are exposed to compounds in an FBS-free culture medium. […] Imaging is performed on an Opera Phenix High-Content Screening System, allowing quantification of proliferation as a readout for evaluating the effects of chemical probes on hepatocyte regeneration.
Type: functional
Details: read-out: Cell Viability; for viability at 1 µM: Concentration 1 uM; for viability at 10 µM: Concentration 10 uM; for viability at 0.1 µM: Concentration 0.1 uM

| SMILES | viability at 1 µM | viability at 10 µM | viability at 0.1 µM |
| --- | --- | --- | --- |
| Clc1cccc(-c2nnnn2Cc2cccnc2)c1Cl | 97.1% (non-toxic) | 98.7% (non-toxic) |  |
| C[C@H](c1ccnc(Nc2nc3ccc(-c4cc(N(C)C)ncn4)cc3[nH]2)c1)N1CCN(C(=O)CC(F)(F)F)CC1 [BAY-985] | 68.2% (non-toxic) | 38.1% (toxic) |  |
| CCC(F)(F)c1cc(N2CCC(S(C)(=O)=O)CC2)nc2sc(C(N)=O)c(N)c12 [BI-605906] | 103% (non-toxic) | 134% (non-toxic) |  |
| O=C1CCc2cc(Nc3cc(OC4CCOCC4)c([N+](=O)[O-])cc3Cl)ccc2N1 | 147% (non-toxic) | 76% (non-toxic) |  |
| O=C(NNS(=O)(=O)c1ccccc1F)c1cc(F)cc(-c2ccccn2)c1 [WM-1119] | 107% (non-toxic) | 75.2% (non-toxic) |  |
| CCc1ccccc1C(=O)Nc1n[nH]c2c(C)c(F)c(C3C(C#N)=C(C)N(C)C(C)=C3C#N)cc12 [BAY-3827] | 110% (non-toxic) | 84.2% (non-toxic) |  |
| CCOC(=O)c1cc2cc(-c3cc(C(=O)NCc4ccc(C(=O)O)cc4)nn3C)ccc2[nH]1 [BI 4394] | 106% (non-toxic) |  | 108% (non-toxic) |
| COc1nc2ccc([C@@](O)(c3ccccc3)C3CCN(C(C)=O)CC3)cc2c(Cl)c1Cc1ccc(-n2cccn2)cc1 [JNJ-54119936] | 116% (non-toxic) | 114% (non-toxic) |  |
| CN1CCN(C(=O)C(C)(C)c2ccc(C(=O)Nc3cn4cc(-c5ccncc5)ccc4n3)cc2)CC1 [T3-CLK] | 109% (non-toxic) | 1.01% (toxic) |  |
| CNCc1ccccc1-c1csc([C@@H](C)Nc2nc(C)nc3cc(OC)c(OC)cc23)c1 [BAY-293] | 120% (non-toxic) | 0.873% (toxic) |  |
| O[C@]1(C(F)(F)F)CCCC[C@H]1Nc1ccc(F)cc1 [BAY-390] | 96.9% (non-toxic) |  | 99.2% (non-toxic) |
| COc1cccc(CNC(=O)c2nc3scc(COCc4ccc(C(=O)O)cc4)c3c(=O)[nH]2)c1 [T-26c] | 99.4% (non-toxic) |  | 125% (non-toxic) |
| c1ccc(N2CCN(Cc3nc4ccccc4[nH]3)CC2)nc1 | 117% (non-toxic) | 110% (non-toxic) |  |
| c1ccc2oc(-c3csc(C4CCN(Cc5nc6ncccc6[nH]5)CC4)n3)cc2c1 | 88.5% (non-toxic) | 35.4% (toxic) |  |
| Cn1cncc1[C@](O)(COc1ccc(C#N)cc1-c1ccc(OC(F)(F)F)cc1)c1ccc(C#N)cc1 | 112% (non-toxic) | 113% (non-toxic) |  |
| CC(=O)Nc1c(F)cc(C(=O)N[C@H]2CC[C@H](O)CC2)cc1O[C@@H](C)c1ccccc1 [GSK046] | 96.7% (non-toxic) | 85.2% (non-toxic) |  |
| CC(=O)C1=C(C)N(c2cccc(C(F)(F)F)c2)C(=O)N[C@@H]1c1ccc(C#N)nc1 [BAY-678] | 139% (non-toxic) | 132% (non-toxic) |  |
| CNC(=O)c1ccc(Nc2ncc(C(F)(F)F)c(NCc3nccnc3N(C)S(C)(=O)=O)n2)cc1 [DEFACTINIB] | 55.4% (toxic) |  | 46.1% (toxic) |
| C[C@@H](c1cccc(CN)c1)n1cc(Cl)cc(C(N)=O)c1=N | 104% (non-toxic) | 111% (non-toxic) |  |
| O=C(O)[C@H]1[C@H](Cn2nnc3ccccc3c2=O)CC[C@@H]1C(=O)c1ccc(OCCC2CCOCC2)cc1 [BAY-7598] | 97.3% (non-toxic) |  | 96.9% (non-toxic) |
| Cc1c[nH]c2nccc(Oc3c(F)cc(Nc4cc(Cl)nc(N)n4)cc3F)c12 [BAY-549] | 83.7% (non-toxic) |  | 79.9% (non-toxic) |

| SMILES | viability at 1 µM | viability at 10 µM | viability at 0.1 µM |
| --- | --- | --- | --- |
| C[C@@H](NC(=O)Nc1cc2[nH]ncc2c(CO)n1)c1ccccc1 [ERKi] | 75% (non-toxic) | 75.2% (non-toxic) |  |
| CO[C@@H](C)c1c(Nc2ccc([C@H](N(C)C(=O)C3CCS(=O)(=O)CC3)C(F)(F)F)cc2)cnc2cc(Cl)nn12 [NVS-MALT1] | 99.7% (non-toxic) | 33.9% (toxic) |  |
| CCCCN(CCCC)C(=O)CN1C[C@H](c2cc(OC)c3c(c2)OCO3)[C@@H](C(=O)O)[C@@H]1CC(C)(C)CCC | 83.6% (non-toxic) |  | 107% (non-toxic) |
| CN(C)[C@@H]1CCN(c2cc(-c3ccccc3)nc3ccnn23)C1 [(R)-ZINC-3573] | 111% (non-toxic) | 95.8% (non-toxic) |  |
| O=C(NC[C@@H]1[C@H]2CN(C(=O)OCc3cc(C(F)(F)F)cc(C(F)(F)F)c3)C[C@@H]12)c1ccc2[nH]nnc2c1 [BI 2545] | 119% (non-toxic) | 76.5% (non-toxic) |  |
| O=C(Nc1cnc(Oc2ccc(F)cc2)nc1)N1CCc2ncccc2[C@@H]1c1ccc(F)cc1 [BAY-899] | 92.3% (non-toxic) | 106% (non-toxic) |  |
| Cc1ccc2nc(CNCCCOc3ccccc3)cc(O)c2c1 [UCSF924] | 164% (non-toxic) | 147% (non-toxic) |  |
| COc1ccc2c(O[C@@H]3C[C@H]4C(=O)N[C@]5(C(=O)O)CC5/C=C\CCCCC[C@H](NC(=O)OC5CCCC5)C(=O)N4C3)cc(-c3csc(NC(=O)C(C)C)n3)nc2c1C (some centres not stated) [BI 1230] | 106% (non-toxic) | 0.711% (toxic) |  |
| CN([C@@H]1CCc2c(CC(=O)O)c3ccccc3n2C1)S(=O)(=O)c1ccc(F)cc1 [MK-7246] | 107% (non-toxic) | 111% (non-toxic) |  |
| C[C@H](NC(=O)c1cnc2n1[C@](C)(Cc1ccc(C#N)cc1)C(=O)N2c1cc(Cl)c(F)c(Cl)c1)C(=O)NC1(c2ccccn2)CC1 [BI 1950] | 110% (non-toxic) | 121% (non-toxic) |  |
| Nc1nc(NCc2ccccc2)nc(-c2ccccc2CO)n1 [Ogerin] | 94.3% (non-toxic) | 115% (non-toxic) |  |
| CO[C@H]1CC[C@H](CNc2ccc(S(=O)(=O)NC(=O)c3ccc(N4CCN(CC5=C(c6ccc(Cl)cc6)CC(C)(C)CC5)CC4)cc3Oc3cnc4[nH]ccc4c3)cc2[N+](=O)[O-])CC1 [A-1211212] | 130% (non-toxic) | 126% (non-toxic) |  |
| CN(C)CC#Cc1ccc(OCCCc2sc(N3CCc4cccc(C(=O)Nc5nc6ccccc6s5)c4C3)nc2C(=O)O)c(F)c1 [A-1155463] | 120% (non-toxic) | 117% (non-toxic) |  |
| CC(C)(O)[C@H](F)CN1Cc2cc(NC(=O)c3cnn4cccnc34)c(N3CCOCC3)cc2C1=O | 118% (non-toxic) | 90.2% (non-toxic) |  |
| Cc1cc(C)c(-n2ccn3nc(-c4cccnc4)cc23)cc1NC(=O)c1cc(C#N)cc(S(F)(F)(F)(F)F)c1 [BAY-826] | 144% (non-toxic) |  | 149% (non-toxic) |
| Cc1c(NC(=O)c2cc(C(N)=O)nc3cc(F)ccc23)c(C(F)(F)F)nn1Cc1ccc(C#N)cc1 [BAY-876] | 91.5% (non-toxic) | 21.4% (toxic) |  |
| CCC(=O)N[C@H]1CC[C@@H](C(=O)N(C)c2ccc(-c3nc4ccccc4o3)cc2)C1 [BI 99179] | 81.6% (non-toxic) | 55.6% (toxic) |  |
| O=C1c2ccc(Nc3ccc(F)cc3F)cc2CCc2ccc(OC[C@H](O)CO)cc21 [Skepinone-L] | 94.6% (non-toxic) | 16.2% (toxic) |  |
| CC1=C(C#N)C(c2ccc3[nH]nc(C)c3c2)C(C#N)=C(C)N1 [BAY-474] | 99.5% (non-toxic) | 111% (non-toxic) |  |
| CCNC(=O)c1cc2c(N3CCOCC3C)ccnc2[nH]1 (configuration not stated) | 90.1% (non-toxic) | 74.9% (non-toxic) |  |

— ChEMBL document CHEMBL5608109, “Hepatotoxicity screening of Donated Chemical Probes” (2024)
